Assay results reported in ChEMBL document CHEMBL1201862, “PubChem BioAssay data set” (2004).
The source made the active and inactive calls. For most assays here, no stated cut-off is given here; in the data, actives have a measured EC50 and inactives only a lower limit.

What was measured:
[1] = target: Estrogen receptor beta (Homo sapiens, UniProt Q92731); assay: ERβ–SRC-3 coactivator interaction inhibitors, confirmation, orthogonal assay, biochemical, ELISA, streptavidin-HRP readout (AID 1060)
[2] = inhibitors of intracellular T. cruzi replication, confirmation, NIH3T3 host cells, beta-gal luminescence (AID 2044); format: functional, cell-based;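 further: intracellular parasites grown in NIH/3T3 mouse fibroblasts as host cells; luminescent beta-galactosidase reporter signal from transgenic T. cruzi replicating inside host cells; inhibitors lower the luminescence signal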
[3] = cytotoxicity toward NIH3T3 fibroblasts, dose response, counter-screen, cell-based, ATP luminescence, mouse fibroblasts (AID 2010); format: functional;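 further: cells exposed to compound for about 90 hours before reading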
[4] = cells
[5] = cytotoxicity in HEK-293T cells, dose response, cytotoxicity control for BCR NF-kB inhibitor project, luminescence, B-cell screen hits (AID 489021); format: functional, cell-based;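 further: HEK-293T cells carrying an NF-kB luciferase reporter; cells exposed to compound for about 14 hours before viability readout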
[6] = target: Glyceraldehyde-3-phosphate dehydrogenase (Homo sapiens, UniProt P04406)
[7] = target: T1, Mannose-6-phosphate isomerase (Homo sapiens, UniProt P34949); assay: human PMI inhibitors, high substrate, primary screen, biochemical, fluorescence intensity, high mannose 6-phosphate (AID 1220)
T1 sequence (P34949 whole entry): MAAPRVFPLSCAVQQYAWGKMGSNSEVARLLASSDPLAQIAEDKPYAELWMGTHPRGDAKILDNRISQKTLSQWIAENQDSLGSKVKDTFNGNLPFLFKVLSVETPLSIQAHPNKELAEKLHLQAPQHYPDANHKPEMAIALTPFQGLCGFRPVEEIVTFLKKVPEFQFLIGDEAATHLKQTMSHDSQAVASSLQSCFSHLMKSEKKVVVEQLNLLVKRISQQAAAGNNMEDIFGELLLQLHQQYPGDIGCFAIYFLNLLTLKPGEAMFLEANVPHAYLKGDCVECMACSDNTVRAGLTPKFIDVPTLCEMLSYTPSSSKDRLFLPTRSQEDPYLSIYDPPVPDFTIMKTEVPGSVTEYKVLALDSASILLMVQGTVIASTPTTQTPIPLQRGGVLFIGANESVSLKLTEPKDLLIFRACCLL

[8] = target: T2, Replicative DNA helicase DnaB (Mycobacterium tuberculosis, UniProt P9WMR3); assay: DnaB intein splicing inhibitors, dose response, biochemical, cell-free fluorescence (AID 449749); format: functional
T2 sequence (P9WMR3 whole entry): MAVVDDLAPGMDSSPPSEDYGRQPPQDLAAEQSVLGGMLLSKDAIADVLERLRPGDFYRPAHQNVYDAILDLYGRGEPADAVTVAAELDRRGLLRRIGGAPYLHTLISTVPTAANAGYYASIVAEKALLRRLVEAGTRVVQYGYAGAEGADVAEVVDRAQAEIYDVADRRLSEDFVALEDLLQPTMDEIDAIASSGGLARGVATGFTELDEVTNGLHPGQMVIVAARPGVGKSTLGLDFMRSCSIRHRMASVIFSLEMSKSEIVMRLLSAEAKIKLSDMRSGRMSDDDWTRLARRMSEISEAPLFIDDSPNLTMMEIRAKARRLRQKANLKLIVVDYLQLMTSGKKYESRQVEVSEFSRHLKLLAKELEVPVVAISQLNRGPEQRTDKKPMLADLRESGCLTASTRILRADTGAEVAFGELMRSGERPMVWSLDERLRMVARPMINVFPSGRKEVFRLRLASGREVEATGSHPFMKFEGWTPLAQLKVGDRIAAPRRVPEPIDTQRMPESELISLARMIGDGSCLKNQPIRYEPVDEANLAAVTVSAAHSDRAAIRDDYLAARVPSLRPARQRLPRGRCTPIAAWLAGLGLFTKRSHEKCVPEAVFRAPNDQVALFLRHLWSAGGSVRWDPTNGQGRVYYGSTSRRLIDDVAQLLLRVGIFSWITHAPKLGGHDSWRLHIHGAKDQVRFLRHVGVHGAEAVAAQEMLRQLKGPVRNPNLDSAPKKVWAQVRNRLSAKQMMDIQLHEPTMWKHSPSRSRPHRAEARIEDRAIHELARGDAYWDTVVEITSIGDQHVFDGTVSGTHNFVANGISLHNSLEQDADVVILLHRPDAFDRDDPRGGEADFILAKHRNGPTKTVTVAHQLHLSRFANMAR

[9] = target: T3, Protein RecA (Mycobacterium tuberculosis, UniProt P9WHJ3); assay: Fluorescence Cell-Free Homogeneous Dose Retest to Identify Inhibitors of RecA-Intein Splicing Activity. [Related pubchem assays (depositor defined):AID2097, AID2223, AID489010, AID492950]; format: functional
T3 sequence (P9WHJ3 whole entry): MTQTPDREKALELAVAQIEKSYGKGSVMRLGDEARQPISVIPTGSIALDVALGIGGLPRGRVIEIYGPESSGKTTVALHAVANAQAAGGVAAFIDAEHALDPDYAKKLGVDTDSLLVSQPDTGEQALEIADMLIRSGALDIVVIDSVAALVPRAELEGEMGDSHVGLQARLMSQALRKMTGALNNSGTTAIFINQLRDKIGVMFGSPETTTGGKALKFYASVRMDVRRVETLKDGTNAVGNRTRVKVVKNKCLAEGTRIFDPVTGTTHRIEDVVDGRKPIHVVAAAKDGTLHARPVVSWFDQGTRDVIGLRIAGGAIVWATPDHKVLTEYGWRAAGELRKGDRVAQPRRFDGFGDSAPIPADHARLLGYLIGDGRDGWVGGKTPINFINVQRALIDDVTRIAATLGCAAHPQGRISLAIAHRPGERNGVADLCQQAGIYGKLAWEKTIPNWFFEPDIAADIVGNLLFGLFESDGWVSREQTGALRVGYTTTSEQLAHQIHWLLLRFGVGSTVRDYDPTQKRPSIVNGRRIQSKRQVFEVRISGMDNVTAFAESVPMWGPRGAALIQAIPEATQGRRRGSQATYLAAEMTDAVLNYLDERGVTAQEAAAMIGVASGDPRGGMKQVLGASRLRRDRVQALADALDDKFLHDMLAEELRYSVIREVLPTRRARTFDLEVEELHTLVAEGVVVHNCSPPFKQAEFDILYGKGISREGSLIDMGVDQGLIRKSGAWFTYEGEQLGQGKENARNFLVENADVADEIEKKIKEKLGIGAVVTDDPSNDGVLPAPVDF

[10] = target: T4, Histone-lysine N-methyltransferase NSD2 (Homo sapiens, UniProt O96028); format: biochemical
T4 sequence (O96028 whole entry): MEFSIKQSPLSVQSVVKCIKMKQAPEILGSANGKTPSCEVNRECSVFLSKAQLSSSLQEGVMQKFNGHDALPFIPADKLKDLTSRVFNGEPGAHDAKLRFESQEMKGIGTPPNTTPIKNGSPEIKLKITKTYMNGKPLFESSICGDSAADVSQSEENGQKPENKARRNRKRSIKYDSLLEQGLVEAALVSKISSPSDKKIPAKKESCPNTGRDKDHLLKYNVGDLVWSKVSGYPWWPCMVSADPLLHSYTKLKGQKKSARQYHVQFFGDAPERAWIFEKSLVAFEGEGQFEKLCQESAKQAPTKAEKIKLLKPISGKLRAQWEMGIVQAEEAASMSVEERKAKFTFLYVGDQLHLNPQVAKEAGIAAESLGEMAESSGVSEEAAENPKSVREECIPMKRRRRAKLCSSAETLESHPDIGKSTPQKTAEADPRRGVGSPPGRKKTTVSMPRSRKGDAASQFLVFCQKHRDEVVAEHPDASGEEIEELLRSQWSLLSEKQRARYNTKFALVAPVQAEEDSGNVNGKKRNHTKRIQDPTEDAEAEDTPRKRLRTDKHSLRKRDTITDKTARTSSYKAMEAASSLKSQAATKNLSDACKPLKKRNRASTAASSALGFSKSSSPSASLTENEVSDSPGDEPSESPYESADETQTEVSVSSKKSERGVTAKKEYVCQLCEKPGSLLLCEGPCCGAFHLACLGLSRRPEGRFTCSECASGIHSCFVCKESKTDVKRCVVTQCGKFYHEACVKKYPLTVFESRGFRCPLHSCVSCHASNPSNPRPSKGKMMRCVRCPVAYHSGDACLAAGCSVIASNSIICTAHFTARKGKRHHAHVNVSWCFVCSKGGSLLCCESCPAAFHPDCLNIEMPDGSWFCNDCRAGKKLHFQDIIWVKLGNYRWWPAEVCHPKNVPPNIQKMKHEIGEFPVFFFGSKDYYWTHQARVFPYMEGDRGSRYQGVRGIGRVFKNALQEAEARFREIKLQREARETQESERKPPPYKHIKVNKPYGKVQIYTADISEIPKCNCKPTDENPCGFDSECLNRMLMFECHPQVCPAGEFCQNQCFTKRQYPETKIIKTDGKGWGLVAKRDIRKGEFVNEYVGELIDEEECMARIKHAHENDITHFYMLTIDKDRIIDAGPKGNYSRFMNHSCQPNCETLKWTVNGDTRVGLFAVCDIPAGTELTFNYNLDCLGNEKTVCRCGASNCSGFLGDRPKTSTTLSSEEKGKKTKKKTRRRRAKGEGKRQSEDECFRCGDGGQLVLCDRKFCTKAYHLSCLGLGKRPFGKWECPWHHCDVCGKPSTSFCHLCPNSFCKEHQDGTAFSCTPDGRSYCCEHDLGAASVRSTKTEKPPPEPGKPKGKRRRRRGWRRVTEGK

[11] = inhibitors of firefly luciferase expression or activity, dose response, H4 neuroglioma cells, luminescence (AID 1990); format: functional, cell-based
[12] = target: Luciferin 4-monooxygenase (Photinus pyralis, UniProt P08659); assay: Counter Screen for Luciferase-based Assay Positives. [Related pubchem assays: 620, 618, 411 ]
[13] = Luminescence Cell-Based Dose Response HTS to Identify Inhibitors of 5'UTR Stem-Loop Driven Prion Protein mRNA Translation in H4 Neuroglioblastoma Cells. [Related pubchem assays: 1827 (Project Summary), 1813 (Primary HTS)]; format: functional
[14] = inhibitors of SNCA 5'UTR-driven reporter translation, confirmation, H4 neuroglioma cells, luminescence (AID 1988); format: functional, cell-based
[15] = system: HT-1080; assay: cytotoxicity in HT1080 fibrosarcoma cells, cell-based, fluorescence readout (AID 620); format: functional; conditions: Homo sapiens
[16] = target: T5, Heat shock factor protein 1 (Mus musculus, UniProt P38532); assay: HSF1 potentiators in luciferase reporter cells, confirmation, cell-based, NIH3T3, luminescence, dose retest (AID 435004); format: functional;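 further: stress induced by proteasome inhibitor MG132 added 30 min after compound; luciferase reporter driven by HSF1 response element in NIH3T3 cells; actives raise luminescence as potentiators of the MG132 stress response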
T5 sequence (P38532 whole entry): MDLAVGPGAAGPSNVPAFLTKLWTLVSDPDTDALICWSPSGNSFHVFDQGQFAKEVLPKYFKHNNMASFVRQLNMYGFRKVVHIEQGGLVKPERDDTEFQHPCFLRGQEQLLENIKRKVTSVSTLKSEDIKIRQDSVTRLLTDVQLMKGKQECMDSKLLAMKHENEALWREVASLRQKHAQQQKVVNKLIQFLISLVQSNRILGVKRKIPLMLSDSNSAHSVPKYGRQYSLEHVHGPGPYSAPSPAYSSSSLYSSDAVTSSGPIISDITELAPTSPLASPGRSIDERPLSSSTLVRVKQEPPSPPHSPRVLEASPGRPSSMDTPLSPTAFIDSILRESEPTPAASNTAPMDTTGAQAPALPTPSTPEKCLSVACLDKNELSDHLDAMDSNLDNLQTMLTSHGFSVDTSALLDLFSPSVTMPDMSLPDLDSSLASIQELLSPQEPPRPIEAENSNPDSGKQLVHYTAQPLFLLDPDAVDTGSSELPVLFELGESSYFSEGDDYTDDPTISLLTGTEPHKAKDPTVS

[17] = system: HEK293; assay: inhibitors of LMP1-driven NF-kB reporter, dose response, cell-based, HEK293, luciferase, cherry-pick (AID 588343); format: functional; conditions: Homo sapiens

Luciferin 4-monooxygenase, sequence (P08659 whole entry): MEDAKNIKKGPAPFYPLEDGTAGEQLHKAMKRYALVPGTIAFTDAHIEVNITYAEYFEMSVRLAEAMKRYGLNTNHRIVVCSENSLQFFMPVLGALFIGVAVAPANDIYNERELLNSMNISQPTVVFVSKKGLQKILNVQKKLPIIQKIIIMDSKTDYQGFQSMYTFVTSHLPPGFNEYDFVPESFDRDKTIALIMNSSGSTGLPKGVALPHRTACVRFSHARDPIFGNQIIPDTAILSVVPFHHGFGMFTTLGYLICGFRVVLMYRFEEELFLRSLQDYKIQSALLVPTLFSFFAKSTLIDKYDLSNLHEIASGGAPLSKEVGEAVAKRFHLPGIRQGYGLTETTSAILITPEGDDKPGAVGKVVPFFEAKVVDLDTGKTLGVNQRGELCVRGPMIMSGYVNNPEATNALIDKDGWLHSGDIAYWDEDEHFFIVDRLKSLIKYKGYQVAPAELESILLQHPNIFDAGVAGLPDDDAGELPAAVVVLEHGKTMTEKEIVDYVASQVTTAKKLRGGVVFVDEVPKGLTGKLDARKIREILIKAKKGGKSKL
Estrogen receptor beta, sequence (Q92731 whole entry): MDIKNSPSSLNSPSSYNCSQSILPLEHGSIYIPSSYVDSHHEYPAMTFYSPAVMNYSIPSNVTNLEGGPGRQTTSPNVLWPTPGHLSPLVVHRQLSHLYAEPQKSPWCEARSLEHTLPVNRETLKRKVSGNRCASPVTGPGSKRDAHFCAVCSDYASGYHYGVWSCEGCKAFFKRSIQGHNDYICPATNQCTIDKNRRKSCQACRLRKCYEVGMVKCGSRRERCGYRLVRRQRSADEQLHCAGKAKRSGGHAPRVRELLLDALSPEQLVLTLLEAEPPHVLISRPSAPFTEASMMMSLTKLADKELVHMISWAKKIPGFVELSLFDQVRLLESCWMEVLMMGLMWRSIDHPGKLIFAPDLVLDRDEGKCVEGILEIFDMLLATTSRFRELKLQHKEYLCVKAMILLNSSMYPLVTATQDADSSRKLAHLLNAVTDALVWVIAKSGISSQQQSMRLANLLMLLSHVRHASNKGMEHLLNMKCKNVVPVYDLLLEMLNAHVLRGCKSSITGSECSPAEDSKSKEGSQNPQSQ
Glyceraldehyde-3-phosphate dehydrogenase, sequence (P04406 whole entry): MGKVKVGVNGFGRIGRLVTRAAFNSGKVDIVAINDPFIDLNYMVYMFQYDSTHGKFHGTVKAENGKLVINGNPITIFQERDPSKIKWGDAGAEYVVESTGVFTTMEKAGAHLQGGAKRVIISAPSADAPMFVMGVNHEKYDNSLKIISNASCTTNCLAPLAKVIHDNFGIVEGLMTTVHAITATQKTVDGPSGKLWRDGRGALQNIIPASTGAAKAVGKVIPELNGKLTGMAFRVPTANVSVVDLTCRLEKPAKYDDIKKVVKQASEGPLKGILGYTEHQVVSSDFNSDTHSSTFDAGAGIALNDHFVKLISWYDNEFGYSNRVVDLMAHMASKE

With CCc1ccc(NC(=O)CSc2nc(C)cc(O)n2)cc1 the IC50 [1] was 48.8 µM (not active).
With CSCCC(=O)N(C)CC1CCCN(CCc2cccc(C(F)(F)F)c2)C1 (stereo not drawn) the EC50 [2] was < 0.1 µM (active), the EC50 [3] was > 60 µM (not active) and the EC50 [4] was 0.329 µM (active).
With COc1ccc(-c2noc(CCCC(=O)Nc3ccc(C(N)=O)cc3)n2)cc1 the IC50 [5] was > 80 µM (inactive).
In the case of COCc1cc(CN2CCCC(C(=O)Nc3cccc(-n4cnnn4)c3)C2)ccc1OC (stereo not drawn), the EC50 [2] is reported as < 0.1 µM (active), the EC50 [3] is reported as > 60 µM (not active) and the EC50 [4] is reported as 0.061 µM (active).
With O=C1C(Cl)=C(N2CCN(Cc3ccccc3)CC2)C(=O)N1c1ccnc(Cl)c1 the IC50 [6] was > 50 µM (inconclusive).
For CC(=N)/C(C#N)=C(/O)CSc1nnnn1-c1ccccc1, the IC50 [1] was > 50 µM (not active).
In the case of CC1=Nc2cccc3cccc(c23)N1C, the IC50 [7] is reported as > 50 µM (not active), the AC50 [8] is reported as > 380 µM (inactive) and the EC50 [9] is reported as > 380 µM (inactive). The AC50 [10] was 1.25 µM (active).
For Cc1ccc(C(=O)CSc2nnnn2C(C)C)c(C)c1, the EC50 [11] was 9.17 µM (active), the EC50 [12] was 8.28 µM (active) and the EC50 [13] was 14.7 µM (active). For the same compound, the EC50 [14] was 3.7 µM (active), the EC50 [15] was > 50 µM (not active) and the EC50 [16] was > 260 µM (inactive). For the same compound, the AC50 [17] was 2.92 µM (active).
For Cc1cc(-c2csc(N)n2)c(C)n1CCC(C)C, the EC50 [12] was 16 µM (active) and the EC50 [15] was > 50 µM (not active).
